In ChEMBL document CHEMBL2034857, “Discovery of the macrocycle (9E)-15-(2-(pyrrolidin-1-yl)ethoxy)-7,12,25-trioxa-19,21,24-triaza-tetracyclo[18.3.1.1(2,5).1(14,18)]hexacosa-1(24),2,4,9,14(26),15,17,20,22-nonaene (SB1578), a potent inhibitor of janus kinase 2/fms-like tyrosine kinase-3 (JAK2/FLT3) for the treatment of rheumatoid …” (J Med Chem, 2012):

Assays:
[1] = target: T1, Tyrosine-protein kinase JAK3 (Homo sapiens, UniProt P52333); test: Inhibition of recombinant JAK3 using poly(Glu,Ala,Tyr) as substrate after 2 hrs by luminometric assay
T1 sequence (P52333 whole entry): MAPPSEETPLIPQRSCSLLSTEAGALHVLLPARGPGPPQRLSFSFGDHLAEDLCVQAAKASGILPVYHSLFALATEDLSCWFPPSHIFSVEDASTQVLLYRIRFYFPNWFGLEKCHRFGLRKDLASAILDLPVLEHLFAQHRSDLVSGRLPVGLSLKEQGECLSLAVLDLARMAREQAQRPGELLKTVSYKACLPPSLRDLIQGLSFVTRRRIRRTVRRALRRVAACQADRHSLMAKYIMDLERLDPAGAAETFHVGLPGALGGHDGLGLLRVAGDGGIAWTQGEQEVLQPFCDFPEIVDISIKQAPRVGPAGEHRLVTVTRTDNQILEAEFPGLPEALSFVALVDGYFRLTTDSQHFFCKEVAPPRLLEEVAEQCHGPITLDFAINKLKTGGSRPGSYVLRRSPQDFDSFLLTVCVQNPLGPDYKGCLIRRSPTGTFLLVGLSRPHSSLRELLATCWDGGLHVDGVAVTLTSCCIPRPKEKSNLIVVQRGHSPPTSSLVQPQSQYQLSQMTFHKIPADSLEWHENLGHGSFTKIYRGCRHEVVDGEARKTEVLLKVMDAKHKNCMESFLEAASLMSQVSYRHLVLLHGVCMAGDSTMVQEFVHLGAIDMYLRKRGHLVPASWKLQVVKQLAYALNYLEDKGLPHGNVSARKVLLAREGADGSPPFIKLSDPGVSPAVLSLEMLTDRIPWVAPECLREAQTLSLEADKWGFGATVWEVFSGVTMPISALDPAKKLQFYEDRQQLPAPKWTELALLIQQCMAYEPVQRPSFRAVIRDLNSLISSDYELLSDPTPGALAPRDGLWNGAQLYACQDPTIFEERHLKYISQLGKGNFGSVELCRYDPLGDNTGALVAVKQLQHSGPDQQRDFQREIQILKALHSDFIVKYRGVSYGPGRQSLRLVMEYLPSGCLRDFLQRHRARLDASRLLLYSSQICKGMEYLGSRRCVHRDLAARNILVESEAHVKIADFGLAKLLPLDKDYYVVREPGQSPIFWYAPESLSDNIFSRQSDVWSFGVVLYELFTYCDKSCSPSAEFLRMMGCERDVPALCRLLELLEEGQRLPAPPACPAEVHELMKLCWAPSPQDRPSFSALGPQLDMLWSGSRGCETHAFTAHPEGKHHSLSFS

[2] = target: Cyclin-dependent kinase 2 (Homo sapiens, UniProt P24941); test: Inhibition of recombinant CDK2 using RbING as substrate after 2 hrs by luminometric assay
[3] = target: Tyrosine-protein kinase JAK2 (Homo sapiens, UniProt O60674); test: Inhibition of recombinant JAK2 using poly(Glu,Ala,Tyr) as substrate after 2 hrs by luminometric assay
[4] = target: Non-receptor tyrosine-protein kinase TYK2 (Homo sapiens, UniProt P29597); test: Inhibition of TYK2
[5] = target: Tyrosine-protein kinase JAK1 (Homo sapiens, UniProt P23458); test: Inhibition of recombinant JAK1 using poly(Glu,Ala,Tyr) as substrate after 2 hrs by luminometric assay
[6] = target: T2, Receptor-type tyrosine-protein kinase FLT3 (Homo sapiens, UniProt P36888); test: Inhibition of recombinant FLT3 using poly(Glu,Tyr) as substrate after 2 hrs by luminometric assay
T2 sequence (P36888 whole entry): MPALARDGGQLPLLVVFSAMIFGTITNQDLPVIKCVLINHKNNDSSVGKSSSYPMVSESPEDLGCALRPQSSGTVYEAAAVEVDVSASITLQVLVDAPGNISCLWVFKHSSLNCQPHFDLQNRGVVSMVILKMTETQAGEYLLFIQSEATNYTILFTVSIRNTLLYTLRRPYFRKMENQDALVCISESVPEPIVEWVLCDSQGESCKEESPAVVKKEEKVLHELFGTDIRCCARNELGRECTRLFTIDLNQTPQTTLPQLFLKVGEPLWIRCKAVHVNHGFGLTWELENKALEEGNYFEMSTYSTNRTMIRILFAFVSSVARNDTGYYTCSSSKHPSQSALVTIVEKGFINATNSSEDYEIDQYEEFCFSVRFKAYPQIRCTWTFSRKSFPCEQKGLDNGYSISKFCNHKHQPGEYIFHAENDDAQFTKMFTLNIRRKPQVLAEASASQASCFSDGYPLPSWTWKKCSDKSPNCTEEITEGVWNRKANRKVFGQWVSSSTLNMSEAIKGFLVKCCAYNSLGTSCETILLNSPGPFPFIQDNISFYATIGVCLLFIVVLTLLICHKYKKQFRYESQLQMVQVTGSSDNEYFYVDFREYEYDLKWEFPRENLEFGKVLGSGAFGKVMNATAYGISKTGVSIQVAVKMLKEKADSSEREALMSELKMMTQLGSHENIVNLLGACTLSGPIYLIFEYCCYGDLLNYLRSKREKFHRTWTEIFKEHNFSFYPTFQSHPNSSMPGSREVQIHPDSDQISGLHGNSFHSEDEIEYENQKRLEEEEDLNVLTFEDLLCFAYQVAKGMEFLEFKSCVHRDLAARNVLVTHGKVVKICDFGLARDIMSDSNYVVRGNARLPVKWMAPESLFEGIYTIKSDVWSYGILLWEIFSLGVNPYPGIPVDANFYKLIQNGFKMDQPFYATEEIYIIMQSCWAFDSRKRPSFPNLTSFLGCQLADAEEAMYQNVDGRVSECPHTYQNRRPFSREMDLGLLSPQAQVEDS

[7] = Selectivity ratio of IC50 for recombinant JAK3 to IC50 for recombinant JAK2
[8] = Selectivity ratio of IC50 for recombinant CDK2 to IC50 for recombinant JAK2
[9] = Selectivity ratio of IC50 for recombinant JAK1 to IC50 for recombinant JAK2
[10] = Half life in human liver microsomes; assay type: ADME, Microsome
[11] = system: HL-60; test: Antiproliferative activity against human HL60 cells expressing FLT3 after 48 hrs by luciferase reporter gene assay; assay type: functional; conditions: HL-60, 48 h
[12] = system: BaF3; test: Antiproliferative activity against mouse BAF3 cells expressing JAK2 V617F mutant after 48 hrs by luciferase reporter gene assay; assay type: functional; conditions: BaF3, 48 h
[13] = Half life in mouse liver microsomes; assay type: ADME, Microsome
[14] = Kinetic solubility in PBS buffer at pH 7; assay type: physicochemical; conditions: read-out: Kinetic_solubility
[15] = target: Cytochrome P450 3A4 (Homo sapiens, UniProt P08684); test: Inhibition of CYP3A4 in human liver microsomes using testosterone as substrate by LC-MS/MS analysis; assay type: ADME, Microsome
[16] = target: Cytochrome P450 2D6 (Homo sapiens, UniProt P10635); test: Inhibition of CYP2D6 in human liver microsomes using dextromethorphan as substrate by LC-MS/MS analysis; assay type: ADME, Microsome
[17] = target: Voltage-gated inwardly rectifying potassium channel KCNH2 (Homo sapiens, UniProt Q12809); test: Displacement of dofetilide from human ERG

Non-receptor tyrosine-protein kinase TYK2, sequence (P29597 whole entry): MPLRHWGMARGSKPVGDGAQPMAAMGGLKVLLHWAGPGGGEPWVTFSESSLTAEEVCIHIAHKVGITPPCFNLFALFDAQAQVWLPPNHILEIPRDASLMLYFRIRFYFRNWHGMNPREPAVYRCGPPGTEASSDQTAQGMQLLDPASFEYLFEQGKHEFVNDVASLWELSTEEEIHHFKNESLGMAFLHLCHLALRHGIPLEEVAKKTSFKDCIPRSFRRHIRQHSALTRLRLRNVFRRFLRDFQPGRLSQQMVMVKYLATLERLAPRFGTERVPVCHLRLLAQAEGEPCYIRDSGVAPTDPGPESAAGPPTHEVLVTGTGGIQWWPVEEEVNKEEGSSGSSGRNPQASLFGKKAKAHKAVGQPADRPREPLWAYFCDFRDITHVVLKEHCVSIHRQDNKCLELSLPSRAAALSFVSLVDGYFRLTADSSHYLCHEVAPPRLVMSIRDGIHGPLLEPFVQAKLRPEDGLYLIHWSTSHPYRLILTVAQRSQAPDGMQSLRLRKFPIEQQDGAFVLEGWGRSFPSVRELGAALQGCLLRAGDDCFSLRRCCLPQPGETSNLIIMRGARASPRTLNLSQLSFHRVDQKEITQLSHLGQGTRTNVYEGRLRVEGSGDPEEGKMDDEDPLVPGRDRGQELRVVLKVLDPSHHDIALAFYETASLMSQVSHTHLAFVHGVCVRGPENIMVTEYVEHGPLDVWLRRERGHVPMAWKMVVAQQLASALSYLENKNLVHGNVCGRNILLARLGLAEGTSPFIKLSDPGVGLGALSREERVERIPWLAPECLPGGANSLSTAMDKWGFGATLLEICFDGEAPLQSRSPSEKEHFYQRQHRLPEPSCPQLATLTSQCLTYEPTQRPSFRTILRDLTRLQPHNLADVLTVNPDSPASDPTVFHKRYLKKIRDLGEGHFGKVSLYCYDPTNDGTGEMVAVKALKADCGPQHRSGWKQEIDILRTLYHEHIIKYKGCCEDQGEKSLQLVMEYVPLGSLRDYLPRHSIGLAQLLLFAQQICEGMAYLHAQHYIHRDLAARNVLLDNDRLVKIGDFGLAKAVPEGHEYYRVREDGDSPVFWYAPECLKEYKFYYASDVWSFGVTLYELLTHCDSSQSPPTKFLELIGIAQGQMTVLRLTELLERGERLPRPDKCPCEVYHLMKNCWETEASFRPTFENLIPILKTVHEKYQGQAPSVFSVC
Tyrosine-protein kinase JAK1, sequence (P23458 whole entry): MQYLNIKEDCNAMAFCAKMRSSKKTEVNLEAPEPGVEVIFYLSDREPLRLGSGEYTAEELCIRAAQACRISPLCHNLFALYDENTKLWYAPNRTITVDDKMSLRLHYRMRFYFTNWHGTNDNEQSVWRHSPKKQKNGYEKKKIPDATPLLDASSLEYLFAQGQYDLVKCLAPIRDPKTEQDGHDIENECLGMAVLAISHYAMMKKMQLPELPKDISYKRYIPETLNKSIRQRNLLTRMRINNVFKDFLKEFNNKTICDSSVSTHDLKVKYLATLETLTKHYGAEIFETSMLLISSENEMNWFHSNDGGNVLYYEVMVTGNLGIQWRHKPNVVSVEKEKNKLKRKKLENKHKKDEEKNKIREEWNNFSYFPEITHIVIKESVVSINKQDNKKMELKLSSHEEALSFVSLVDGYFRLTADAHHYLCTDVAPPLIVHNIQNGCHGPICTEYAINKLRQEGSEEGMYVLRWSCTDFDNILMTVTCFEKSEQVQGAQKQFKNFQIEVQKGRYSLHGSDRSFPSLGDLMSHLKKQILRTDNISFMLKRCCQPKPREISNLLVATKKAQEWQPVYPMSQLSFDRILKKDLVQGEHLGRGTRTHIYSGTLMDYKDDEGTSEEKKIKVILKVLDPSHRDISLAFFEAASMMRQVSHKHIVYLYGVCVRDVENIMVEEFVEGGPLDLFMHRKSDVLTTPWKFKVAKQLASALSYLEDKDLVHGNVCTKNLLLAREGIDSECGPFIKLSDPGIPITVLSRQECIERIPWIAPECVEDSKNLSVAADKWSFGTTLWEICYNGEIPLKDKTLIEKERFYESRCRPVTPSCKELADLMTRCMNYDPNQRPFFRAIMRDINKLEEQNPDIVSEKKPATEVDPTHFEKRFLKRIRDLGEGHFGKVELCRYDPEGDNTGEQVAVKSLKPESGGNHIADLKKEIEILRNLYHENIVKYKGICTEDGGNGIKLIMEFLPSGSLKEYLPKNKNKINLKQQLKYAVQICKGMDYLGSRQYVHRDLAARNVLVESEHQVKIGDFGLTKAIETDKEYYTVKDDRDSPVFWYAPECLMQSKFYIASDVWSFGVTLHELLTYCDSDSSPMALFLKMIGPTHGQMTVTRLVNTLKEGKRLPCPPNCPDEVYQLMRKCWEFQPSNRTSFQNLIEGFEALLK
Tyrosine-protein kinase JAK2, sequence (O60674 whole entry): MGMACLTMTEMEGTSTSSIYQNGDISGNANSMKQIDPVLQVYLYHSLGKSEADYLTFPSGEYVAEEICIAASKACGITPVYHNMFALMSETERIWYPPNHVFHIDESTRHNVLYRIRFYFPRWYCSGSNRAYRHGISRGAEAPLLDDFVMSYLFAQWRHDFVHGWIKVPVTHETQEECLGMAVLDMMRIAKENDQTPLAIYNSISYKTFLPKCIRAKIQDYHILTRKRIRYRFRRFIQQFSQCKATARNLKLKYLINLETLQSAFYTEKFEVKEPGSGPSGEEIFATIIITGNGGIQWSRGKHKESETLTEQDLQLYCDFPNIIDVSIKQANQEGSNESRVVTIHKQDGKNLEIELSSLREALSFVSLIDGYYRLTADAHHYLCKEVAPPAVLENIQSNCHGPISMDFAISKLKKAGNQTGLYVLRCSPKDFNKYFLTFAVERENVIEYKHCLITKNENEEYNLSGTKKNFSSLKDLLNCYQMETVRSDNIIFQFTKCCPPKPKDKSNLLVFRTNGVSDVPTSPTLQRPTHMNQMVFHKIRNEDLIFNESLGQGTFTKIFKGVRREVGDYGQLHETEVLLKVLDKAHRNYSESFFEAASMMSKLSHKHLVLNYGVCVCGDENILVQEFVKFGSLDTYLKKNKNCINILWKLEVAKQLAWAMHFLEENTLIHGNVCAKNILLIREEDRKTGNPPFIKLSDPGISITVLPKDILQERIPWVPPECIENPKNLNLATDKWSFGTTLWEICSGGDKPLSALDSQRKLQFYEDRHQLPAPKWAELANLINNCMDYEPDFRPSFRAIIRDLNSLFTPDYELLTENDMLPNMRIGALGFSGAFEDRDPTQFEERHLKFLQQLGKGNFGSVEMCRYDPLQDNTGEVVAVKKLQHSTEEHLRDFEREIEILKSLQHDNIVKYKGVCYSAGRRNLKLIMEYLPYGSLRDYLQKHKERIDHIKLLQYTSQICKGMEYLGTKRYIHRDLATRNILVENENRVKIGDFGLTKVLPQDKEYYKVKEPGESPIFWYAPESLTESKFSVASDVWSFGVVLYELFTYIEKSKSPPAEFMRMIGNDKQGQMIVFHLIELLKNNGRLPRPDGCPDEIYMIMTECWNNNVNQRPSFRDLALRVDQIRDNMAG
Cytochrome P450 3A4, sequence (P08684 whole entry): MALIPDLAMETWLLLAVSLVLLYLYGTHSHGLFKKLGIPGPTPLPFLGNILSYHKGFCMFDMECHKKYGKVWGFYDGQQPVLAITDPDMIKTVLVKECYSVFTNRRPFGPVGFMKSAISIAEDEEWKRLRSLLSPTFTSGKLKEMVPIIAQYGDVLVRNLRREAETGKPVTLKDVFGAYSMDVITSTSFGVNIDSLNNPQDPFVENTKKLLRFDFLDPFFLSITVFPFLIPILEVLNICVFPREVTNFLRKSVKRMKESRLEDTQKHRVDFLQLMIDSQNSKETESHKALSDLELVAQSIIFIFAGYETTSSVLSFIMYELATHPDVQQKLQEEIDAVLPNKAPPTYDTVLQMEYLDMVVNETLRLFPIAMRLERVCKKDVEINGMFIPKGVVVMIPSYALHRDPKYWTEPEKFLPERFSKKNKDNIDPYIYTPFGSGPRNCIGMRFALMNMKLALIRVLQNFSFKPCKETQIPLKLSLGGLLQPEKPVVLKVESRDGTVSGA
Cytochrome P450 2D6, sequence (P10635 whole entry): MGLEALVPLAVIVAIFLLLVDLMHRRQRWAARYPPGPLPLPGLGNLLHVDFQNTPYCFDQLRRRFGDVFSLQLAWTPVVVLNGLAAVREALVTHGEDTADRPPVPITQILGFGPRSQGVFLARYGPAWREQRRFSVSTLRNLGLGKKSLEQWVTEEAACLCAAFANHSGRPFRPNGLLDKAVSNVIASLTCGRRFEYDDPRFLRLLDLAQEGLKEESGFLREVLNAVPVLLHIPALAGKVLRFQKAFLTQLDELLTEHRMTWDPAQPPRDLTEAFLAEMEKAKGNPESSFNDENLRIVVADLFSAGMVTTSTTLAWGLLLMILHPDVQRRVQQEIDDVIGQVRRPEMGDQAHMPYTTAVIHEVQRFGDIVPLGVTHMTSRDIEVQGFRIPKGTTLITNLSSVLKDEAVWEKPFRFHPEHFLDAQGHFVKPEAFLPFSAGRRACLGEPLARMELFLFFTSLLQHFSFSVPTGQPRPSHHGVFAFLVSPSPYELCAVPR

Compound	IC50 [1]	IC50 [2]	IC50 [3]	IC50 [4]	IC50 [5]	IC50 [6]	Ratio IC50 [7]	Ratio IC50 [8]	Ratio IC50 [9]	half-life [10]	GI50 [11]	GI50 [12]	half-life [13]	solubility kinetic [14]	IC50 [15]	IC50 [16]	IC50 [17]
CN1C/C=C/CCn2ccc3ccc(cc32)-c2ccnc(n2)Nc2cccc(c2)C1 (mixture of isomers)	> 10000 nM	77 nM	–	1500 nM	1000 nM	93 nM	–	–	–	–	–	–	–	–	–	–	–
CN1C/C=C/COCC2=CC=C(O2)c2ccnc(n2)Nc2cccc(c2)C1 (mixture of isomers)	> 10000 nM	320 nM	820 nM	1500 nM	1800 nM	770 nM	–	–	–	–	–	–	–	–	–	–	–
C1=C/COCc2cc(ccc2OCCN2CCCC2)Nc2nccc(n2)-c2ccc(s2)COC/1 (mixture of isomers)	–	–	–	–	–	–	89	397	57	–	–	–	–	–	–	–	–
CN1C/C=C/COCC2=CC=C(O2)c2ccnc(n2)Nc2ccc(OCCN3CCCC3)c(c2)C1 (mixture of isomers)	> 10000 nM	1600 nM	–	710 nM	650 nM	120 nM	–	–	–	–	–	–	–	–	–	–	–
C1=C2COC/C=C/COCc3cccc(c3)Nc3nccc(n3)C(=C1)O2 (mixture of isomers)	> 10000 nM	680 nM	220 nM	670 nM	8000 nM	620 nM	–	–	–	–	–	–	–	–	–	–	–
CN1C/C=C/COCC2CCCN(C2)c2ccnc(n2)Nc2cccc(c2)C1 (mixture of isomers)	> 10000 nM	> 10000 nM	> 10000 nM	> 10000 nM	> 10000 nM	> 10000 nM	–	–	–	–	–	–	–	–	–	–	–
CN1C/C=C/COCC2=CC=C(S2)c2ccnc(n2)Nc2ccc(OCCN3CCCC3)c(c2)C1 (mixture of isomers)	> 10000 nM	710 nM	90 nM	41 nM	200 nM	12 nM	–	–	–	–	–	–	–	–	–	–	–
COCCOc1ccc2cc1CN(C)C/C=C/COCC1=CC=C(S1)c1ccnc(n1)N2 (mixture of isomers)	> 10000 nM	330 nM	170 nM	33 nM	390 nM	22 nM	–	–	–	–	–	–	–	–	–	–	–
Cc1cnc2nc1-c1ccc3ccn(c3c1)C/C=C/COCc1cc(ccc1OCCN1CCCC1)N2 (mixture of isomers)	> 10000 nM	2500 nM	370 nM	440 nM	5100 nM	17 nM	–	–	–	–	–	–	–	–	–	–	–
C1=C/Cn2ccc3ccc(cc32)-c2ccnc(n2)Nc2cccc(c2)COC/1 (mixture of isomers)	> 10000 nM	83 nM	–	–	4800 nM	73 nM	–	–	–	–	–	–	–	–	–	–	–
C1=C/COCc2cncc(c2)-c2ccnc(n2)Nc2cccc(c2)COC/1	> 10000 nM	200 nM	930 nM	950 nM	> 10000 nM	560 nM	–	–	–	–	–	–	–	–	–	–	–
COCCOc1ccc2cc1CN(C)C/C=C/COCC1=CC=C(O1)c1ccnc(n1)N2 (mixture of isomers)	> 10000 nM	8600 nM	1100 nM	590 nM	3200 nM	1200 nM	–	–	–	–	–	–	–	–	–	–	–
CN1C/C=C/CCOc2cc(ccn2)-c2ccnc(n2)Nc2cccc(c2)C1 (mixture of isomers)	> 10000 nM	22 nM	260 nM	65 nM	170 nM	310 nM	–	–	–	–	–	–	–	–	–	–	–

Second part, led by results:

IC50 [1]	IC50 [2]	IC50 [3]	IC50 [4]	IC50 [5]	IC50 [6]	Ratio IC50 [7]	Ratio IC50 [8]	Ratio IC50 [9]	half-life [10]	GI50 [11]	GI50 [12]	half-life [13]	solubility kinetic [14]	IC50 [15]	IC50 [16]	Compound	IC50 [17]
> 10000 nM	420 nM	> 10000 nM	5900 nM	> 10000 nM	4800 nM	–	–	–	–	–	–	–	–	–	–	CN1C/C=C/COCc2cncc(c2)-c2ccnc(n2)Nc2cccc(c2)C1 (mixture of isomers)	–
1000 nM	3200 nM	290 nM	630 nM	> 10000 nM	63 nM	–	–	–	–	–	–	–	–	–	–	C1=C/COCc2cc(ccc2OCCN2CCCC2)Nc2nccc(n2)-c2cncc(c2)COC/1 (mixture of isomers)	–
680 nM	6800 nM	17 nM	47 nM	1500 nM	45 nM	40	400	88	> 60 min	640 nM	80 nM	25 min	218 µg/mL	–	–	C1=C/COCc2cc(ccc2OCCN2CCCC2)Nc2nccc(n2)-c2csc(c2)COC/1 (mixture of isomers)	–
9200 nM	> 10000 nM	110 nM	310 nM	1900 nM	180 nM	–	–	–	–	–	–	–	–	–	–	C1=C/COCc2cc(ccc2OCCN2CCCC2)Nc2nccc(n2)-c2cc(co2)COC/1 (mixture of isomers)	–
1140 nM	230 nM	63 nM	–	–	7.9 nM	–	–	–	–	–	–	–	–	–	–	C1=C/Cn2ccc3ccc(cc32)-c2ccnc(n2)Nc2ccc(OCCN3CCCC3)c(c2)COC/1 (mixture of isomers)	–
650 nM	2900 nM	7.3 nM	32 nM	420 nM	24 nM	–	–	–	> 60 min	200 nM	55 nM	27 min	154 µg/mL	> 10000 nM	> 10000 nM	C1=C2COC/C=C/COCc3cc(ccc3OCCN3CCCC3)Nc3nccc(n3)C(=C1)S2 (mixture of isomers)	7200 nM
8800 nM	> 10000 nM	67 nM	120 nM	3000 nM	48 nM	131	> 149	45	> 60 min	710 nM	–	18 min	> 250 µg/mL	> 10000 nM	> 10000 nM	C1=C/COCc2cc(ccc2OCCN2CCCC2)Nc2nccc(n2)-c2coc(c2)COC/1 (mixture of isomers)	–
1400 nM	270 nM	18 nM	30 nM	970 nM	31 nM	–	–	–	–	–	–	–	–	–	–	C1=C/COCc2cc(ccc2OCCN2CCCC2)Nc2nccc(n2)-c2ccnc(c2)OCC/1 (mixture of isomers)	–
